Reference: patent US20250136606A1, “MODULATORS OF TRPML, THEIR COMPOSITIONS AND METHODS OF USE” (Caraway Therapeutics, Inc., priority 2021, published 2025)

Key:
Format in all cases: cell-based
Details in all cases: fluorescent calcium assay
TRPML2 = target: T1, TRPML2 (Homo sapiens, UniProt Q8IZK6); experiment: Fluorescent TRPML2 assay (performed as for TRPML1, substituting the TRPML2 subtype)
T1 construct: expressed in transfected cells
T1 sequence (Q8IZK6 1-566): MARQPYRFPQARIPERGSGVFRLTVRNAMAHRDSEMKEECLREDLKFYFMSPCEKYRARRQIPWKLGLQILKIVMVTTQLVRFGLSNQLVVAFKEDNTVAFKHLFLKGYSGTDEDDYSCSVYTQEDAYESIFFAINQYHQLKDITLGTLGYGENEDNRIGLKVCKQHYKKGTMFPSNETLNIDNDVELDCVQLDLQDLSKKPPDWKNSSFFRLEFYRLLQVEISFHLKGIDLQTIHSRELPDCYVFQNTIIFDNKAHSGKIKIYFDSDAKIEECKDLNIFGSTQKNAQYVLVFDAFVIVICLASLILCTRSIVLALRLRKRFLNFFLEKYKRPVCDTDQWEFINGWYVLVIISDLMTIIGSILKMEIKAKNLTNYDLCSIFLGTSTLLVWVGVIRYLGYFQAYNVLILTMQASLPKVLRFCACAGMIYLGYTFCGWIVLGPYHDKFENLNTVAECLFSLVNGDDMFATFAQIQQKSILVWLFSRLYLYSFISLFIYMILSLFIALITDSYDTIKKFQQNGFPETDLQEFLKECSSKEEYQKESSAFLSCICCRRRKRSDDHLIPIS
How it was run: (§1)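 Compound series (final 6 nM-20 μM, half-log, triplicate) were added to Fluo4-AM-loaded HEK-293 Trex cells in 10 mM calcium Ringer's, expressing the human TRPML subtype after doxycycline 0.5 ug/mL induction. Percent activity versus positive/negative controls from 480/540 nm fluorescence; EC50 by non-linear regression.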

TRPML3 = target: T2, TRPML3 (Homo sapiens, UniProt Q8TDD5); experiment: Fluorescent TRPML3 assay (performed as for TRPML1, substituting the TRPML3 subtype)
T2 construct: expressed in transfected cells
T2 sequence (Q8TDD5 1-553): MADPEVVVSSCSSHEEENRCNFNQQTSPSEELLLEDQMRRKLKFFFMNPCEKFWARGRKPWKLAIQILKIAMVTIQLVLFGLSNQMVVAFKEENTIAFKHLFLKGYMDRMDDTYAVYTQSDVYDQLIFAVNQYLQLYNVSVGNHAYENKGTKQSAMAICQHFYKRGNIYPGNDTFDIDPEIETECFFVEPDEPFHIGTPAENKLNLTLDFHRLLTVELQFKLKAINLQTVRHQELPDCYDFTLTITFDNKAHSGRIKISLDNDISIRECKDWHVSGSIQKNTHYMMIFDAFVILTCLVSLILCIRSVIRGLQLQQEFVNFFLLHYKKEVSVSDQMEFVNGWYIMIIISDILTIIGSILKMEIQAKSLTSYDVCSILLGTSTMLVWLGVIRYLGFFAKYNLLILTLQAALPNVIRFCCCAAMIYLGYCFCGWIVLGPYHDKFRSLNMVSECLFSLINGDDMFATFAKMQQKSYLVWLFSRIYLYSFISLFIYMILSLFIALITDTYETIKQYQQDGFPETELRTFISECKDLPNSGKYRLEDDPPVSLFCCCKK
How it was run: as §1

TRPML1 = TRPML1 (Homo sapiens, UniProt Q9GZU1); experiment: Fluorescent TRPML1 assay (Fluo4-AM calcium fluorescence in doxycycline-induced HEK-293 Trex cells)
How it was run: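 hTRPML1 (mutated for cell-surface expression) in HEK-293 Trex, dox 0.5 ug/mL o/n; Fluo4-AM 1 uM ~60 min, then ~60 min de-esterification, dark; modified Ringer's + 10 mM Ca. Cmpds 20 uM–6 nM final, half-log, n=3. Ex480/Em540; % activity vs ctrls; EC50 by nonlinear regression.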

TRPML1, sequence (Q9GZU1 whole entry L15A/L16A/L577A/L578A, form open): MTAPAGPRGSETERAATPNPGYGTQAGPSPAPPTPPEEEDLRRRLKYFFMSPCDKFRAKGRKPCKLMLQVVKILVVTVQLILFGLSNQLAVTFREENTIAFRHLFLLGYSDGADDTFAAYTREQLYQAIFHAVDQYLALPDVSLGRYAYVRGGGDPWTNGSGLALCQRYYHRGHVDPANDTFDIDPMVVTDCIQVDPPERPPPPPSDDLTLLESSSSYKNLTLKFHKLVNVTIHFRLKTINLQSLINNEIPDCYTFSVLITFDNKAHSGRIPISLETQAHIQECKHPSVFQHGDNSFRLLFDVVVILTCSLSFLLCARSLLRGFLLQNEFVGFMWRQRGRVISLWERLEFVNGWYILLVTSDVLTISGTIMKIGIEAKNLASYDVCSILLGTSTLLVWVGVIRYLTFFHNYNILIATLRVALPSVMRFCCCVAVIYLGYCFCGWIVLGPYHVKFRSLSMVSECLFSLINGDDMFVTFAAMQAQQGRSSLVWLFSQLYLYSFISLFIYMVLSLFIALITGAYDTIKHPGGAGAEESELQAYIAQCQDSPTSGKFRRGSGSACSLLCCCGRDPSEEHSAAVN

Row | EC50 (TRPML2) [nM] | EC50 (TRPML3) [nM] | EC50 (TRPML1) [nM] | Compound
1 | > 2000 | 500 to 2000 | 500 to 2000 | CC(C)(CF)OC(=O)N1CCN(c2ncnc3c2c(-c2ccccc2F)cn3-c2cncnc2)CC1 [Compound 173, 1-fluoro-2-methylpropan-2-yl 4-(5-(2-fluorophenyl)-7-(pyrimidin-5-yl)-7H-pyrrolo[2,3-d]pyrimidin-4-yl)piperazine-1-carboxylate]
2 | 500 to 2000 | 100 to 500 | 100 to 500 | C[C@@H]1CN(c2ncnc3c2c(-c2ccccc2F)cn3-c2cnn(C)c2)[C@@H](C)CN1C(=O)OC(C)(C)C [Compound 176, tert-butyl (2R,5S)-4-(5-(2-fluorophenyl)-7-(1-methyl-1H-pyrazol-4-yl)-7H-pyrrolo[2,3-d]pyrimidin-4-yl)-2,5-dimethylpiperazine-1-carboxylate]
3 | > 2000 | 500 to 2000 | 500 to 2000 | Cc1cncc(-n2cc(-c3cccnc3)c3c(N4CCN(C(=O)OC(C)(C)C)C[C@@H]4C)ncnc32)c1 [Compound 177, tert-butyl (S)-3-methyl-4-(7-(5-methylpyridin-3-yl)-5-(pyridin-3-yl)-7H-pyrrolo[2,3-d]pyrimidin-4-yl)piperazine-1-carboxylate]
4 | > 2000 | 500 to 2000 | 100 to 500 | Cc1cncc(-n2cc(-c3cccnc3)c3c(N4C[C@@H](C)N(C(=O)OC(C)(C)C)C[C@@H]4C)ncnc32)c1 [Compound 178, tert-butyl (2R,5S)-2,5-dimethyl-4-(7-(5-methylpyridin-3-yl)-5-(pyridin-3-yl)-7H-pyrrolo[2,3-d]pyrimidin-4-yl)piperazine-1-carboxylate]
5 | > 2000 | 100 to 500 | 500 to 2000 | C[C@@H]1CN(c2ncnc3c2c(-c2cccnc2)cn3-c2cncc(C(F)(F)F)c2)[C@@H](C)CN1C(=O)OC(C)(C)C [Compound 179, tert-butyl (2R,5S)-2,5-dimethyl-4-(5-(pyridin-3-yl)-7-(5-(trifluoromethyl)pyridin-3-yl)-7H-pyrrolo[2,3-d]pyrimidin-4-yl)piperazine-1-carboxylate]
6 | 500 to 2000 | < 100 | 100 to 500 | Cc1nccnc1-c1cn(-c2ccc(F)c(F)c2)c2ncnc(N3C[C@@H](C)N(C(=O)OC(C)(C)C)C[C@@H]3C)c12 [Compound 180, tert-butyl (2R,5S)-4-(7-(3,4-difluorophenyl)-5-(3-methylpyrazin-2-yl)-7H-pyrrolo[2,3-d]pyrimidin-4-yl)-2,5-dimethylpiperazine-1-carboxylate]
7 | 500 to 2000 | 100 to 500 | 100 to 500 | Cc1nccnc1-c1cn(-c2ccc(F)cc2)c2ncnc(N3C[C@@H](C)N(C(=O)OC(C)(C)C)C[C@@H]3C)c12 [Compound 181, tert-butyl (2R,5S)-4-(7-(4-fluorophenyl)-5-(3-methylpyrazin-2-yl)-7H-pyrrolo[2,3-d]pyrimidin-4-yl)-2,5-dimethylpiperazine-1-carboxylate]
8 | > 2000 | 500 to 2000 | 500 to 2000 | Cc1nccnc1-c1cn(-c2ccccc2)c2ncnc(N3C[C@@H](C)N(C(=O)OC(C)(C)C)C[C@@H]3C)c12 [Compound 182, tert-butyl (2R,5S)-2,5-dimethyl-4-(5-(3-methylpyrazin-2-yl)-7-phenyl-7H-pyrrolo[2,3-d]pyrimidin-4-yl)piperazine-1-carboxylate]
9 | 500 to 2000 | 100 to 500 | 100 to 500 | C[C@H]1CN(C(=O)OC(C)(C)C(F)(F)F)CCN1c1ncnc2c1c(-c1ccccc1)cn2-c1cnn(C)c1 [Compound 183, 1,1,1-trifluoro-2-methylpropan-2-yl(S)-3-methyl-4-(7-(1-methyl-1H-pyrazol-4-yl)-5-phenyl-7H-pyrrolo[2,3-d]pyrimidin-4-yl)piperazine-1-carboxylate]
10 | 500 to 2000 | 100 to 500 | 100 to 500 | Cc1nccnc1-c1cn(-c2ccc(Cl)cc2)c2ncnc(N3C[C@@H](C)N(C(=O)OC(C)(C)C)C[C@@H]3C)c12 [Compound 184, tert-butyl (2R,5S)-4-(7-(4-chlorophenyl)-5-(3-methylpyrazin-2-yl)-7H-pyrrolo[2,3-d]pyrimidin-4-yl)-2,5-dimethylpiperazine-1-carboxylate]
11 | 500 to 2000 | < 100 | < 100 | C[C@@H]1CN(c2ncnc3c2c(-c2ccccc2F)cn3-c2cnn(C)c2)[C@@H](C)CN1C(=O)OC(C)(C)CF [Compound 185, 1-fluoro-2-methylpropan-2-yl (2R,5S)-4-(5-(2-fluorophenyl)-7-(1-methyl-1H-pyrazol-4-yl)-7H-pyrrolo[2,3-d]pyrimidin-4-yl)-2,5-dimethylpiperazine-1-carboxylate]
12 | 100 to 500 | < 100 | < 100 | C[C@@H]1CN(c2ncnc3c2c(-c2ccccc2F)cn3-c2cnn(C)c2)[C@@H](C)CN1C(=O)OC(C)(C)C(F)(F)F [Compound 186, 1,1,1-trifluoro-2-methylpropan-2-yl (2R,5S)-4-(5-(2-fluorophenyl)-7-(1-methyl-1H-pyrazol-4-yl)-7H-pyrrolo[2,3-d]pyrimidin-4-yl)-2,5-dimethylpiperazine-1-carboxylate]
13 | 100 to 500 | 100 to 500 | 100 to 500 | CC1CN(C(=O)OC(C)(C)C)CCN1c1nccc2c1c(-c1ccccn1)cn2-c1cccc(Cl)c1 (stereo not drawn) [Compound 187, tert-butyl 4-(1-(3-chlorophenyl)-3-(pyridin-2-yl)-1H-pyrrolo[3,2-c]pyridin-4-yl)-3-methylpiperazine-1-carboxylate]
14 | 500 to 2000 | 100 to 500 | 100 to 500 | C[C@H]1CN(c2ncnc3c2c(C2CC2)cn3-c2cc(F)cc(F)c2)CCN1C(=O)OC(C)(C)C [Compound 188, tert-Butyl (S)-4-(5-cyclopropyl-7-(3,5-difluorophenyl)-7H-pyrrolo[2,3-d]pyrimidin-4-yl)-2-methylpiperazine-1-carboxylate]
15 | 500 to 2000 | 100 to 500 | 500 to 2000 | CC1CN(C(=O)OC(C)(C)C)CCN1c1nccc2c1c(-c1cnccn1)cn2-c1cccc(Cl)c1 (stereo not drawn) [Compound 190, tert-Butyl 4-(1-(3-chlorophenyl)-3-(pyrazin-2-yl)-1H-pyrrolo[3,2-c]pyridin-4-yl)-3-methylpiperazine-1-carboxylate]
16 | 500 to 2000 | 100 to 500 | 100 to 500 | C[C@H]1CN(C(=O)OC(C)(C)CF)CCN1c1ncnc2c1c(-c1ccccc1)cn2-c1cnn(C)c1 [Compound 191, 1-fluoro-2-methylpropan-2-yl (S)-3-methyl-4-(7-(1-methyl-1H-pyrazol-4-yl)-5-phenyl-7H-pyrrolo[2,3-d]pyrimidin-4-yl)piperazine-1-carboxylate]
17 | 100 to 500 | < 100 | < 100 | C[C@@H]1CN(c2ncnc3c2c(-c2ccccc2F)cn3-c2ccccn2)CCN1C(=O)OC(C)(C)C [Compound 192, tert-butyl (R)-4-(5-(2-fluorophenyl)-7-(pyridin-2-yl)-7H-pyrrolo[2,3-d]pyrimidin-4-yl)-2-methylpiperazine-1-carboxylate]
18 | 100 to 500 | < 100 | < 100 | C[C@@H]1CN(c2ncnc3c2c(N2CCCC2)cn3-c2cccc(Cl)c2)CCN1C(=O)OC(C)(C)C [Compound 193, tert-butyl (R)-4-(7-(3-chlorophenyl)-5-(pyrrolidin-1-yl)-7H-pyrrolo[2,3-d]pyrimidin-4-yl)-2-methylpiperazine-1-carboxylate]
19 | 100 to 500 | 100 to 500 | 100 to 500 | C[C@H]1CN(c2ncnc3c2c(N2CCCC2)cn3-c2cccc(Cl)c2)CCN1C(=O)OC(C)(C)C [Compound 194, tert-Butyl (S)-4-(7-(3-chlorophenyl)-5-(pyrrolidin-1-yl)-7H-pyrrolo[2,3-d]pyrimidin-4-yl)-2-methylpiperazine-1-carboxylate]
